Results taken from patent US4594345A, “Methylflavone-8-carboxylates” (Nippon Shinyaku Co. Ltd., priority 1982, dated 1986).

How the values were obtained:
[1] = tested on: passive cutaneous anaphylaxis (PCA); assay: Passive cutaneous anaphylaxis assay (PCA) in rats; assay type: in vivo, rat (Wister strain); conditions: Rattus norvegicus, po, 1 h, oral 10 mg/kg, one hour before antigen, read-out: PCA Inhibition Ratio %
Procedure: (§1) The effect of the compounds (I) of the present invention in the treatment of asthma and allergic diseases were evaluated by a passive cutaneous anaphylaxis assay (PCA) in rats and by measuring anti-SRS-A action using ileus of guinea pigs.
(i) Antiserum abundant in homocytotropic antibody is prepared by the same method as Tada and Okumura did (cf. Journal of Immunology, volume 106, page 1002, […]). Thus, one mg (calculated as an amount of protein) of DNP-As (2,4-dinitrophenyl-coupled ascaris extract) prepared by methods of Strejan and Campbell (Journal of Immunology, volume 98, page 893, 1971) and of Eisen (Journal of American Chemical Society, volume 85, page 4593, 1953) and […] pertussis vaccine are administered to each paw of Wister strain rats (180 to 200 grams body weights) by dividing the dose by four. Five days later, 0.5 mg of DNP-As is adminstered into muscle of back. Eight days later from the initial immunization, blood is taken from descending aorta under anesthetizing with ether, the resulting serum is stored at -80° C. and is melted before use.
(ii) Effect of tested compounds is investigated as follows:
Anti-serum obtained by the method (i) is diluted with physiological saline solution double by double successively and 0.05 ml of each diluted solution is administered into back of Wister strain rats (140 to 160 grams body weight) subcutaneously. After 72 hours, a solution of 2 mg (calculated as protein) of DNP-As and 2.5 mg of Evand Blue dissolved in 1 ml of physiological saline solution is administered intravenously at a dose of 5 ml/kg. After thirty minutes from antigen solution administration, the animals are killed and diameters of blue spots appeared at the place where antiserum is administered are measured. The PCA test is conducted by the same method as already described using a diluted solutions of antiserum which always show 10 mm or more of spot diameters and the effect of the test compounds is judged. Thus, antiserum diluted solutions are administered to two places in back. Test compounds are administered orally at the dose of 10 mg/kg one hour before administration of antigen solution. From the skin of reacted parts of killed animals, leaked or emitted dyestuff is extracted [cf. Baeck and Steinetz: J. Pharmacol. Exp. Ther., Vol. 131, page 400 (1961)] and the amount of the dyestuff is measured. The inhibition ratio is calculated by the following expression: [formula] in which R' is an amount of dyestuff in the group treated with the test compounds and A is that in the control group.

[2] = tested on: SRS-A; assay: Anti-SRS-A action (SRS-A induced shrinkage of guinea pig ileus); parameters: species or system guinea pig (Hartley strain male); conditions: treated five minutes before SRS-A (20 units), 5 min; for SRS-A Inhibition Ratio % 10^-6 M: 1 µM; for SRS-A Inhibition Ratio % 10^-7 M: 0.1 µM
Procedure: as §1
Anti-SRS-A action (An anti-action against slow reacting substance of anaphylaxie)
Hartley strain male guinea pigs (300 to 350 grams body weight) are killed and 1.0 to 1.5 cm of ileus is immediately excised from ileocecal parts and is suspended in 10 ml of Tyrode solution (95% O2 -5% CO2 saturation) containing 10^-7 g/ml of atropine and 10^-6 g/ml of pyrilamine. SRS-A (20 units) (the amount of SRS-A showing the same shrinkage as 5 ng of histamine is defined as one unit) prepared by using sensitized guinea pig lung is given to cause shrinkage there. Then antagonistic action of test compounds treated five minutes ago against the shrinkage is measured and recorded via isotonic transducer. [formula] in which A' is a height of shrinkage of SRS-A + test compound and A is that of SRS-A.

Row | Compound | inhibition in vivo at 10 mg/kg [1] [%] | SRS-A Inhibition Ratio % 10^-6 M [2] [%] | SRS-A Inhibition Ratio % 10^-7 M [2] [%]
1 | CCOC(=O)c1cccc2c(=O)c(C)c(-c3ccccc3CC)oc12 [Example 37, ethyl 2'-ethyl-3-methylflavone-8-carboxylate] | 20.5 | 100 | 25.0
2 | Cc1c(-c2ccc(C(C)C)cc2)oc2c(C(=O)O)cccc2c1=O [Example 7, 4'-Isopropyl-3-methylflavone-8-carboxylic acid] | 19.7 | 40.8 | 19.0
3 | CCN(CC)C(=O)c1cccc2c(=O)c(C)c(-c3ccc(Cl)cc3Cl)oc12 [Example 81, 2',4'-dichloro-3-methylflavone-8-carboxylic acid N,N-diethylamide] | 20.4 | 57.1 | 9.8
4 | Cc1c(-c2ccc(C(C)C)cc2)oc2c(C(=O)NC3CCCCC3)cccc2c1=O [Example 53, 4'-isopropyl-3-methylflavone-8-carboxylic acid N-cyclohexylamide] | 10.3 | 51.9 | 40.0
5 | CCc1ccccc1-c1oc2c(C(=O)N(CC)CC)cccc2c(=O)c1C [Example 38, 2'-ethyl-3-methylflavone-8-carboxylic acid N,N-diethylamide] | 16 | 100 | 29.6
6 | CCCCCCNC(=O)c1cccc2c(=O)c(C)c(-c3ccc(C(C)C)cc3)oc12 [Example 52, 4'-isopropyl-3-methylflavone-8-carboxylic acid N-n-hexylamide] | 13.5 | 66.1 | 20.7
7 | CCOC(=O)c1cccc2c(=O)c(C)c(-c3cc(Cl)ccc3Cl)oc12 [Example 77, ethyl 2',5'-dichloro-3-methylflavone-8-carboxylate] | 16.3 | 67.4 | 6.9
8 | CCN(CC)C(=O)c1cccc2c(=O)c(C)c(-c3ccccc3Cl)oc12 [Example 68] | 21.1 | 55.3 | 9.8
9 | CCOC(=O)c1cccc2c(=O)c(C)c(-c3ccc(C(C)(C)C)cc3)oc12 [Example 56, ethyl 4'-tertiary butyl-3-methylflavone-8-carboxylate] | 20.2 | 44.9 | 19.0
10 | CCN(CC)C(=O)c1cccc2c(=O)c(C)c(-c3ccc(C(C)(C)C)cc3)oc12 [Example 57, 4'-tertiary butyl-3-methylflavone-8-carboxylic acid N,N-diethylamide] | 19.1 | 39.1 | 10.4
11 | Cc1c(-c2cc(Cl)ccc2Cl)oc2c(C(=O)O)cccc2c1=O [Example 76, 2',5'-dichloro-3-methylflavone-8-carboxylic acid] | 13.2 | 65.2 | 40.0
12 | Cc1ccc(-c2oc3c(C(=O)OCCO)cccc3c(=O)c2C)c(C)c1 [Example 42, beta-hydroxyethyl 2'.3.4'-trimethylflavone-8-carboxylate] | 19.8 | 27.6 | 10.3
13 | CCN(CC)C(=O)c1cccc2c(=O)c(C)c(-c3ccccc3OC)oc12 [Example 12, 2'-methoxy-3-methylflavone-8-carboxylic acid N,N-diethylamide] | 19.2 | 52.4 | 8.3
14 | CCN(CC)C(=O)c1cccc2c(=O)c(C)c(-c3ccc(C)cc3C)oc12 [Example 41, 2',3,4'-trimethylflavone-8-carboxylic acid N,N-diethylamide] | 31.4 | 54.1 | 23.4
